Results published in the Kinase Knowledgebase extract (Sharma et al. 2016).

Assays:
MAPK14 (human) [1] = biological target: MAPK14 (human) (UniProt Q16539); assay: Inhibition of IL-6 Production in Whole Blood
MAPK14 (human) [2] = biological target: MAPK14 (human) (UniProt Q16539); assay: Inhibition of MAPK14 Kinase Activity
MAPK14 (human) [3] = biological target: MAPK14 (human) (UniProt Q16539); assay: Inhibition of IL-1 Production in Whole Blood
MAPK14 (human) [4] = biological target: MAPK14 (human) (UniProt Q16539); assay: Inhibition of IL-1 Production in LPS-Stimulated PBMCs; conditions: pbmc
MAPK14 (human) [5] = biological target: MAPK14 (human) (UniProt Q16539); assay: Inhibition of TNF Production in Whole Blood
MAPK14 (human) [6] = biological target: MAPK14 (human) (UniProt Q16539); assay: Inhibition of TNF-alpha Production in LPS-Stimulated PBMCs; conditions: pbmc

Chain of MAPK14 (human) (Q16539 whole entry, looked up): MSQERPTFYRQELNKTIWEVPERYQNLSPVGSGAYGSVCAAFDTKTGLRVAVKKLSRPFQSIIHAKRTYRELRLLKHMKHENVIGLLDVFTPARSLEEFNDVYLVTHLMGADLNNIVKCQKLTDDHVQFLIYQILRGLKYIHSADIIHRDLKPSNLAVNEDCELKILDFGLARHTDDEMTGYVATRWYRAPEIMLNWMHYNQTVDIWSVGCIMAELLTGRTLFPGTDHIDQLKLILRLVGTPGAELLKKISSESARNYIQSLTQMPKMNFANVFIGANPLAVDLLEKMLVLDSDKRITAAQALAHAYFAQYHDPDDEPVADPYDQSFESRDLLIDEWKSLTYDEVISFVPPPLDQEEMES

| Compound | IC50 (MAPK14 (human) [2]) | Ki (MAPK14 (human) [2]) | IC50 (MAPK14 (human) [1]) | IC50 (MAPK14 (human) [3]) | IC50 (MAPK14 (human) [4]) | IC50 (MAPK14 (human) [5]) | IC50 (MAPK14 (human) [6]) |
| --- | --- | --- | --- | --- | --- | --- | --- |
| NC(=O)C(c1cccc(-c2ccccc2)n1)c1cc(Cl)ccc1Cl (stereo unspecified) | – | – | > 500 nM | > 500 nM | 100 to 500 nM | > 500 nM | > 500 nM |
| NC(=O)C(c1cccc(-c2ccccc2CN2CCNCC2)n1)c1c(Cl)cccc1Cl (stereo unspecified) | – | – | > 500 nM | > 500 nM | > 500 nM | > 500 nM | > 500 nM |
| Cc1c(Sc2ccccc2)nn2cnc(=O)c(-c3c(Cl)cccc3Cl)c2c1C | – | – | – | – | > 500 nM | – | > 500 nM |
| COC(=O)c1ccccc1Sc1ccc2c(-c3c(Cl)cccc3Cl)c(=O)ncn2n1 | – | – | – | > 500 nM | < 100 nM | > 500 nM | 100 to 500 nM |
| Cc1ccc(Sc2ccc3c(-c4c(Cl)cccc4Cl)c(=O)ncn3n2)cc1 | – | – | – | – | 100 to 500 nM | – | > 500 nM |
| O=c1ncn2nc(Sc3ccccc3)ccc2c1-c1ccccc1Cl | – | – | – | – | > 500 nM | – | > 500 nM |
| Cc1cccc(Sc2ccc3c(-c4c(Cl)cccc4Cl)c(=O)ncn3n2)c1 | – | – | – | – | 100 to 500 nM | – | 100 to 500 nM |
| NC(=O)C(c1cccc(-c2cccs2)n1)c1c(Cl)cccc1Cl (stereo unspecified) | – | – | – | – | > 500 nM | – | > 500 nM |
| COc1ccc(-c2c(=O)ncn3nc(Sc4ccc(F)cc4)ccc23)c(Cl)c1OC | – | – | > 500 nM | > 500 nM | > 500 nM | > 500 nM | > 500 nM |
| Cc1ccc(Sc2ccc3c(-c4c(Cl)cccc4Cl)c(=O)ncn3n2)cc1C | – | – | – | – | > 500 nM | – | > 500 nM |
| CN(C)C(=O)c1ccccc1Sc1ccc2c(-c3c(Cl)cccc3Cl)c(=O)ncn2n1 | – | – | – | – | > 500 nM | – | > 500 nM |
| CNCc1ccccc1-c1cccc(C(C(N)=O)c2c(Cl)cccc2Cl)n1 (stereo unspecified) | – | – | > 500 nM | > 500 nM | > 500 nM | > 500 nM | > 500 nM |
| COC(=O)CCc1ccc(SC2=NN3CNC(=O)C(c4c(Cl)cccc4Cl)=C3C=C2C)cc1 | – | – | > 500 nM | > 500 nM | 100 to 500 nM | > 500 nM | > 500 nM |
| CC(C)c1ccccc1Sc1ccc2c(-c3c(Cl)cccc3Cl)c(=O)ncn2n1 | – | – | – | – | > 500 nM | – | > 500 nM |

Continued, in another order:

| IC50 (MAPK14 (human) [2]) | Ki (MAPK14 (human) [2]) | Compound | IC50 (MAPK14 (human) [1]) | IC50 (MAPK14 (human) [3]) | IC50 (MAPK14 (human) [4]) | IC50 (MAPK14 (human) [5]) | IC50 (MAPK14 (human) [6]) |
| --- | --- | --- | --- | --- | --- | --- | --- |
| < 100 nM | – | O=C1NCN2N=C(Sc3ccc(F)cc3F)C=CC2=C1c1cc2c(cc1Cl)OCO2 | < 250 nM | < 250 nM | < 100 nM | < 250 nM | < 100 nM |
| < 100 nM | – | CCc1cc(Cl)c(C2=C3C=CC(Sc4ccc(F)cc4)=NN3CNC2=O)cc1O | > 500 nM | > 500 nM | 100 to 500 nM | > 500 nM | > 500 nM |
| 100 to 1000 nM | – | Nc1ccc(Cl)c(-c2c(=O)ncn3nc(Sc4ccc(F)cc4)ccc23)c1Cl | > 500 nM | > 500 nM | 100 to 500 nM | > 500 nM | > 500 nM |
| > 1000 nM | – | O=C(O)c1cc(F)ccc1Sc1ccc2c(-c3c(Cl)cccc3Cl)c(=O)ncn2n1 | – | – | > 500 nM | – | > 500 nM |
| 100 to 1000 nM | – | CN(C)C=Nc1ccc(-c2c(=O)ncn3nc(Sc4cc(F)ccc4Cl)ccc23)c(Cl)c1 | – | – | 100 to 500 nM | – | > 500 nM |
| – | > 20000 nM | O=c1ncn2nc(Sc3ccccc3)ccc2c1-c1ccccc1 | – | – | – | – | – |
| < 100 nM | – | Cc1cc(F)ccc1SC1=NN2CNC(=O)C(c3c(F)cccc3F)=C2C=C1 | – | – | 100 to 500 nM | – | > 500 nM |
| 100 to 1000 nM | – | COc1ccc(-c2c(=O)ncn3nc(Sc4ccc(F)cc4)ccc23)cc1OC | – | – | > 500 nM | – | > 500 nM |
